Source: publication PMC10650850, “Discovery, Structure–Activity Relationship and In Vitro Anticancer Activity of Small-Molecule Inhibitors of the Protein–Protein Interactions between AF9/ENL and AF4 or DOT1L” (Cancers, 2023)
Entries after “also recorded” stand apart in the source; their conditions may differ. Structures can show the parent of a compound that is named as a salt.

Key:
[1] = molecular target: AF9/ENL-DOT1L interaction; parameters: method as in PMID 30258537, PMID 35612819; settings: printed in Chart 1; ref [33],[34]; cited from earlier work
AF9-DOT1L interaction [2] = molecular target: T1, AF9-DOT1L interaction (Homo sapiens, UniProt P42568); assay: AlphaLisa assay, AF9-DOT1L interaction; type: binding; settings: for IC50: read-out: IC50 (μM) against the AF9-DOT1L interaction; for inhibition at 5 µM: compound at 5 μM, read-out: % Inhibition at 5 μM against the AF9-DOT1L interaction
T1 construct: human AF9 AHD domain (475–568); made in house; host or cells: E. coli BL21(DE3)
T1 sequence (P42568 475-568): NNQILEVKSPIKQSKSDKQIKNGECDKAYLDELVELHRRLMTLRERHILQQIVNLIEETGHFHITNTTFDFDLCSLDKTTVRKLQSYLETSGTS
How it was run: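 AlphaLisa proximity assay using MBP-tagged human AF9 AHD (475–568, 5 nM) on anti-MBP acceptor beads and biotinylated DOT1L peptide (40 nM) on streptavidin donor beads, in PBS with 0.5% BSA, pH 7.5. Compound titrated; IC50 from dose-response fits of 3 independent experiments.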

HL60 = assay: Antiproliferation assay (XTT), HL60; type: cell-based; settings: Homo sapiens, HL-60, 168 h, 7 days incubation, read-out: Antitumor activity EC50, HL60;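 also: EC50 values in Micromolar not Nanomolar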
Protocol: (§1) The antitumor activity of selected compounds was evaluated against the proliferation of a panel of MLL-r leukemia and other cancer cells. MV4;11 and Molm-13 leukemia cells contain MLL-AF4 and MLL-AF9 fusion oncogenes, respectively. NB4 and HL60 are AML cells without MLL translocation. Hela (cervical cancer) is a solid tumor cell line. […] The anti-proliferation activity of these compounds against other AML cells (i.e., NB4 and HL60) might be due to their inhibition of SEC-mediated gene expression (e.g., Myc), as observed in our previous studies.
(§2) Proliferation inhibition assays were performed using an XTT assay kit (Biotium, Fremont, CA, USA) following our previous methods. The antiproliferation EC50 values were determined using Prism 5 and the reported results were the mean values of at least three independent experiments. The incubation time for all compounds was 7 days.

ENL-AF4 = molecular target: T2, ENL-AF4 (Homo sapiens, UniProt Q03111); assay: AlphaLisa assay, ENL-AF4 interaction; type: binding; settings: ENL AHD, AF4 peptide
T2 construct: ENL AHD domain (489–559); made in house; host or cells: E. coli BL21(DE3)
T2 sequence (Q03111 489-559): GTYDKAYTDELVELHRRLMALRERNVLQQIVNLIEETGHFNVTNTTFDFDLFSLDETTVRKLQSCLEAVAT
Protocol: (§3) Transcription cofactor AF4, which is the most frequent (~35%) fusion protein in MLL1-r leukemia, is another binding partner of AF9/ENL [35, 36, 37]. The AF9/ENL-AF4 interactions are essential for the formation of SEC, which causes aberrant gene expression in MLL-r leukemia and other AMLs. Using our previously developed AlphaLisa assays, selected compounds were tested for their ability to inhibit the PPIs between AF9 or ENL and AF4.
(§4) The cDNA for the human AF9 AHD domain (475–568) and ENL AHD domain (489–559) was synthesized (by Genscript, Piscataway, NJ, USA) and inserted into the pMAL c5X expression plasmid. The DOT1L peptide (Biotin-AHX-[…]) and AF4 peptide (Biotin-AHX-[…]) for the Alpha assay were purchased from Genscript.
(§5) Alpha assays were developed in our previous publication, using a Perkin-Elmer AlphaLisa anti-MBP kit, which contains streptavidin donor beads and anti-MBP acceptor beads. Briefly, the assay was performed using a MBP-protein (5 nM), a biotinylated peptide (40 nM), and increasing concentrations of a compound in 25 µL buffer (PBS with 0.5% BSA, pH 7.5) in 384-well plates according to the manufacturer’s protocol and measured with a Tecan SPARK microplate reader. Data were imported into Prism (version 5.0), and IC50 values from 3 independent experiments with standard deviation were obtained by using a standard dose-response curve fitting.

HoxA9, Meis1 and Myc = assay: RT-qPCR of MLL target genes in Molm-13 cells; type: cell-based; settings: 1 and 5 µM, 4 days
Excerpt: The major function of the SEC is to promote transcription elongation for its bound genes. Because of the high affinity of the PPIs between AF9/ENL and AF4, onco-MLL (e.g., MLL-AF4 or MLL-AF9/-ENL) recruits SEC to MLL target genes, facilitates their expression, and eventually causes leukemia initiation. Next, we investigated whether selected inhibitors of these PPIs can inhibit the expression of HoxA9, Meis1 and Myc, which are MLL target genes and their high expression is characteristic of MLL-r leukemia. In addition, high expression of Myc is also observed in a broad range of AMLs and other cancers and is considered a driving factor for oncogenesis. To this end, RNAs from the control and compound-treated Molm-13 cells (harboring MLL-AF9) were extracted and subjected to quantitative PCR. […] RNA extraction and RT-qPCR were performed following our previous method. 10^5 cells/mL were incubated with a compound for 4 days and the RNA was extracted using an RNeasy mini kit (#74104, Qiagen, Germantown, MD, USA). 100–1000 ng of total RNA was reverse transcribed using iScript™ Reverse Transcription Supermix (Bio-Rad, Hercules, CA, USA), using the manufacturer’s protocol. Quantitative real-time PCR was carried out using Fast SYBR Green Master Mix (Applied Biosystems, Waltham, MA, USA) according to the manufacturer’s instructions. Measurements were performed in triplicate using GAPDH as the reference gene. Real-time PCR was performed using the Biosystems Step One Plus detection system. The following sequences of primers were used: […]

AF9-DOT1L interaction [3] = molecular target: T1, AF9-DOT1L interaction; assay: Pull-down assay of AF9 AHD with DOT1L peptide-coated beads; type: binding; settings: for remaining activity at 10 µM / remaining activity at 50 µM: Western blot, read-out: AF9 AHD % Control; for remaining activity at 10 µM: compound 10 μM; for remaining activity at 50 µM: compound 50 μM; for Effect on AF9 AHD bound to DOT1L peptide-coated beads (in words): up to 50 µM
Excerpt: A pull-down assay was used to confirm that the strong inhibitors could disrupt the AF9-DOT1L interaction. Streptavidin agarose beads coated with biotinylated DOT1L peptide were used to pull-down the protein AF9 AHD in the solution, followed by thorough washing, SDS-PAGE (sodium dodecyl sulfate-polyacrylamide gel electrophoresis) and Western blotting to visualize and quantitate the protein. […] This alternative, non-optical method confirmed that compounds 24 and 50 can inhibit the PPI between AF9 and DOT1L.
The pull-down assays were conducted following our previous method. Briefly, the biotinylated DOT1L peptide (0.25 mg/mL) was incubated with streptavidin agarose beads (20 μL) in PBS containing 0.1% Triton X-100 (400 µL) for 3h to yield, after washing, DOT1L-coated beads. MBP-tagged AF9 AHD (0.2 µM, 400 µL) was pre-incubated with a compound for 1 h before adding to the beads. After 6 h incubation at 4 °C, the beads were collected, thoroughly washed, and subjected to SDS-PAGE and analyzed by Western blot using an MBP antibody (#2396, Cell signaling, Danvers, MA, USA).

MV4;11 = assay: Antiproliferation assay (XTT), MV4;11; type: cell-based; settings: Homo sapiens, MV4-11, 168 h, 7 days incubation, read-out: Antitumor activity EC50, MV4;11;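 also: EC50 values in Micromolar not Nanomolar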
Protocol: as §1, §2

AF9-AF4 = molecular target: T3, AF9-AF4 (Homo sapiens, UniProt P42568); assay: AlphaLisa assay, AF9-AF4 interaction; type: binding; settings: AF9 AHD, AF4 peptide
T3 construct: human AF9 AHD domain (475–568); made in house; host or cells: E. coli BL21(DE3)
T3 sequence (P42568 475-568): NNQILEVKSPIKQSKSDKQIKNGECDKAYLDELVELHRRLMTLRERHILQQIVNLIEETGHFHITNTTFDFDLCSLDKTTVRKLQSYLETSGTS
Protocol: as §3, §4, §5

Molm13 = assay: Antiproliferation assay (XTT), Molm-13; type: cell-based; settings: Homo sapiens, MOLM-13, 168 h, 7 days incubation, read-out: Antitumor activity EC50, Molm13;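 also: EC50 values in Micromolar not Nanomolar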
Protocol: as §1, §2

NB4 = assay: Antiproliferation assay (XTT), NB4; type: cell-based; settings: Homo sapiens, NB-4, 168 h, 7 days incubation, read-out: Antitumor activity EC50, NB4;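 also: EC50 values in Micromolar not Nanomolar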
Protocol: as §1, §2

Hela = assay: Antiproliferation assay (XTT), Hela; type: cell-based; settings: Homo sapiens, HeLa, 168 h, 7 days incubation, read-out: Antitumor activity EC50, Hela
Protocol: as §1, §2

[4] = system: panel of MLL-r leukemia and other cancer cells; assay: Antiproliferation assay (XTT), panel of MLL-r leukemia and other cancer cells; type: cell-based; settings: MV4;11, Molm-13, NB4, HL60 and Hela cells, 7 days
Protocol: as §1, §2

[5] = MBP-protein 5 nM, biotinylated peptide 40 nM, 3 independent experiments with standard deviation

| Structure (SMILES) | Ki [1] [µM] | IC50 (AF9-DOT1L interaction [2]; [5]) [µM] | inhibition at 5 µM (AF9-DOT1L interaction [2]) [%] | EC50 (HL60) [µM] | IC50 (ENL-AF4) [µM] | Expression of MLL target genes HoxA9, Meis1 and Myc (in words) (HoxA9, Meis1 and Myc) | remaining activity at 10 µM (AF9-DOT1L interaction [3]) [%] | remaining activity at 50 µM (AF9-DOT1L interaction [3]) [%] | Effect on AF9 AHD bound to DOT1L peptide-coated beads (in words) (AF9-DOT1L interaction [3]) | EC50 (MV4;11) [µM] | IC50 (AF9-AF4) [µM] | EC50 (Molm13) [µM] | EC50 (NB4) [µM] | EC50 (Hela) [µM] | IC50 ENL-AF4 (ENL-AF4) | IC50 AF9-AF4 (AF9-AF4) | Inhibition of tumor cell proliferation (in words) [4] | IC50 (μM) against the AF9-DOT1L interaction (AF9-DOT1L interaction [2]; [5]) |
| --- | --- | --- | --- | --- | --- | --- | --- | --- | --- | --- | --- | --- | --- | --- | --- | --- | --- | --- |
| N#Cc1cccc(-c2ccc3cc(C(=O)NCC4CCNCC4)[nH]c3c2)c1 [Compound 10, 6-(3-Cyanophenyl)-N-(piperidin-4-ylmethyl)-1H-indole-2-carboxamide hydrochloride] | 0.009 | 2.1 | 0 | – | – | – | – | – | – | – | – | – | – | – | – | – | – | – |
| Cl.O=C(NCC1CCNCC1)c1cc2ccc(-c3ccc(N4CCCCC4)cc3)cc2s1 [Compound 24, 6-(4-(Piperidin-1-yl)phenyl)-N-(piperidin-4-ylmethyl)-benzo[b]thiophene-2-carboxamide hydrochloride] | – | 1.6 ± 0.2 | – | 10 ± 1.8 | 2.6 ± 0.3 | inhibited expression; also recorded: able to reduce the expression | 62 | 4 | significantly reduced the amounts of AF9 AHD; also recorded: dose-dependently reduce AF9 AHD | 9.6 ± 1.2 | 2.1 ± 0.3 | 4.7 ± 0.3 | 5.3 ± 1.1 | 50 | – | – | – | – |
| Cl.NC(=O)c1ccc(-c2ccc3cc(C(=O)NCC4CCNCC4)sc3c2)cc1 [Compound 37, 6-(4-(Carbamoyl)phenyl)-N-(piperidin-4-ylmethyl)-benzo[b]thiophene-2-carboxamide hydrochloride] | – | – | 0 | > 50 | > 50 | not and did not significantly affect the expression | 54 | 44 | did not significantly affect the AF9 AHD levels; also recorded: did not significantly affect the binding | > 50 | > 50 | > 50 | > 50 | > 50 | did not inhibit | did not inhibit | None of these three compounds inhibited tumor cell proliferation | inactive |
